Source: the supplement of paper PMC11208160

experiment: recombinant UMI read abundance after kanamycin selection (control-corrected) (log10(CPM+1)); higher = more efficient recombination; extreme values may be limits of the assay; sequences stand for … in AGTGCAGAGAAAATCGGCCAGTTTTCTCTGCCTGCAGTCCGCATGCCGTGGGACCCCTTGGGTTCTAACCTGTTGCCTAGATTTATGCAGCGGACTGCCTTTCTCCCAAAGTGATAAACCGG…AGGTTGGTTTCACT; site = the 11-nt donor
Method in brief: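 Two replicates each of selected and unselected plating were used in this pooled Escherichia coli screen of donor and donor-binding-loop pairs for the IS621 bridge recombinase. Selection was with IPTG (0.07 mM) and kanamycin. Counts of recombinant UMIs, amplified across the donor–target junction, were converted to CPM, averaged, scaled by control-derived factors and reported as log10(CPM+1).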
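Note: IS621 bridge recombinase in Escherichia coli cells against a fixed T5 target plasmid.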

| Sequence | recombinant UMI read abundance (log10) |
| --- | --- |
| ACTATAACATGGACCGGTTTTCCCGGTAATCCGTATTTGAG (site ACTACAACTCT) | 0.348 |
| ACTATAACATGGACCGGTTTTCCCGGTAATCCGTATTTGAG (site ACTAGAACTCT) | 0.395 |
| ACTATAACATGGACCGGTTTTCCCGGTAATCCGTATTTGAG (site ACTATAACTCT) | 1.72 |
| ACTATACCATGGACCGGTTTTCCCGGTAATCCGTATTTGTA (site ACTATACCTTA) | 0.0158 |
| ACTATTGCATGGACCGGTTTTCCCGGTAATCCGTATTTGGT (site ACTAATGCTAC) | 0.108 |
| ACTATTGCATGGACCGGTTTTCCCGGTAATCCGTATTTGGT (site ACTACTGCTAC) | 0.0131 |
| ACTATTGCATGGACCGGTTTTCCCGGTAATCCGTATTTGGT (site ACTAGTGCTAC) | 0.023 |
| ACTATTGCATGGACCGGTTTTCCCGGTAATCCGTATTTGGT (site ACTATTGCTAC) | 1.91 |
| ACTCAAGCATGGACCGGTTTTCCCGGTAATCCGTATTTGCA (site ACTCAAGCTTG) | 2.26 |
| ACTCAATCATGGACCGGTTTTCCCGGTAATCCGTATTTGAG (site ACTCAATCTCT) | 1.69 |
| ACTCCAACATGGACCGGTTTTCCCGGTAATCCGTATTTGTC (site ACTCCAACTGA) | 1.34 |
| ACTCCAGCATGGACCGGTTTTCCCGGTAATCCGTATTTGAT (site ACTCCAGCTAT) | 2.13 |
| ACTCGCCCATGGACCGGTTTTCCCGGTAATCCGTATTTGTT (site ACTCGCCCTAA) | 1.08 |
| ACTCGTGCATGGACCGGTTTTCCCGGTAATCCGTATTTGGT (site ACTAGTGCTAC) | 0.43 |
| ACTCGTGCATGGACCGGTTTTCCCGGTAATCCGTATTTGGT (site ACTCGTGCTAC) | 1.07 |
| ACTCGTGCATGGACCGGTTTTCCCGGTAATCCGTATTTGGT (site ACTGGTGCTAC) | 0.222 |
| ACTCGTGCATGGACCGGTTTTCCCGGTAATCCGTATTTGGT (site ACTTGTGCTAC) | 0.839 |
| ACTCTCCCATGGACCGGTTTTCCCGGTAATCCGTATTTGAT (site ACTCTCCCTAT) | 0.628 |
| ACTCTCTCATGGACCGGTTTTCCCGGTAATCCGTATTTGCA (site ACTCTCTCTTG) | 3.19 |

| Sequence | recombinant UMI read abundance (log10) |
| --- | --- |
| ACTGATGCATGGACCGGTTTTCCCGGTAATCCGTATTTGGC (site ACTGATGCTGC) | 1.81 |
| ACTGCTACATGGACCGGTTTTCCCGGTAATCCGTATTTGAA (site ACTGCTACTTT) | 0.749 |
| ACTGGTGCATGGACCGGTTTTCCCGGTAATCCGTATTTGGT (site ACTAGTGCTAC) | 1 |
| ACTGGTGCATGGACCGGTTTTCCCGGTAATCCGTATTTGGT (site ACTCGTGCTAC) | 0.414 |
| ACTGGTGCATGGACCGGTTTTCCCGGTAATCCGTATTTGGT (site ACTGGTGCTAC) | 1.69 |
| ACTGGTGCATGGACCGGTTTTCCCGGTAATCCGTATTTGGT (site ACTTGTGCTAC) | 0.401 |
| ACTGTAACATGGACCGGTTTTCCCGGTAATCCGTATTTGCT (site AATGTAACTAG) | 0.987 |
| ACTGTAACATGGACCGGTTTTCCCGGTAATCCGTATTTGCT (site ACTGTAACTAG) | 2.23 |
| ACTGTAACATGGACCGGTTTTCCCGGTAATCCGTATTTGCT (site AGTGTAACTAG) | 1.12 |
| ACTGTAACATGGACCGGTTTTCCCGGTAATCCGTATTTGCT (site ATTGTAACTAG) | 1.55 |
| ACTGTGTCATGGACCGGTTTTCCCGGTAATCCGTATTTGCA (site ACAGTATCTTG) | 2.5 |
| ACTGTGTCATGGACCGGTTTTCCCGGTAATCCGTATTTGCA (site ACTGTGTCTTG) | 2.89 |
| ACTTAACCATGGACCGGTTTTCCCGGTAATCCGTATTTGCA (site ACTTAACCTTG) | 0 |
| ACTTAGACATGGACCGGTTTTCCCGGTAATCCGTATTTGGG (site ACATAGACTCC) | 0.0123 |
| ACTTAGACATGGACCGGTTTTCCCGGTAATCCGTATTTGGG (site ACCTAGACTCC) | 0.00452 |
| ACTTAGACATGGACCGGTTTTCCCGGTAATCCGTATTTGGG (site ACGTAGACTCC) | 0.00655 |
| ACTTAGACATGGACCGGTTTTCCCGGTAATCCGTATTTGGG (site ACTTAGACTCC) | 0.0876 |
| ACTTCGTCATGGACCGGTTTTCCCGGTAATCCGTATTTGTG (site ACTTCGTCTCA) | 0.306 |
| ACTTCTACATGGACCGGTTTTCCCGGTAATCCGTATTTGTG (site ACATCTACTCA) | 0.0153 |
